Measurements as given in article PMC2933276 (Nature structural & molecular biology, 2010).

Columns and labels:
[1] = molecular target: T1, S. pombe Dcp2 regulatory domain (residues 1-94) (Schizosaccharomyces pombe, UniProt O13828); assay: […]-HSQC NMR titration; type: binding
T1 sequence (O13828 1-94): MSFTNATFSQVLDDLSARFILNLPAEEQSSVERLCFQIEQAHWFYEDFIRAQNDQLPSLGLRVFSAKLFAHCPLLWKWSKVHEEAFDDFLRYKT

[2] = molecular target: T2, S. pombe Dcp2 catalytic domain (residues 95-243) (Schizosaccharomyces pombe, UniProt O13828); assay: […]-HSQC NMR titration; type: binding
T2 sequence (O13828 95-243): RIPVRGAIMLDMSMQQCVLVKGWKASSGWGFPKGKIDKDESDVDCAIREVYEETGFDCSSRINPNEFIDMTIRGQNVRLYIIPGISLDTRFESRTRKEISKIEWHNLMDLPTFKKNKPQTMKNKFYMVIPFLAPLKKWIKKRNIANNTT

[3] = molecular target: T3, S. pombe Dcp1-Dcp2 complex (Dcp2 1-243, Dcp1 1-127; D1D2) (Schizosaccharomyces pombe, UniProt O13828); assay: SAXS, ligand-induced compaction; type: binding; details: 10 mM m7GpppA; pH 7.0, 150 mM NaCl, 50 mM HEPES, 2 mM DTT
T3 sequence (O13828 1-243): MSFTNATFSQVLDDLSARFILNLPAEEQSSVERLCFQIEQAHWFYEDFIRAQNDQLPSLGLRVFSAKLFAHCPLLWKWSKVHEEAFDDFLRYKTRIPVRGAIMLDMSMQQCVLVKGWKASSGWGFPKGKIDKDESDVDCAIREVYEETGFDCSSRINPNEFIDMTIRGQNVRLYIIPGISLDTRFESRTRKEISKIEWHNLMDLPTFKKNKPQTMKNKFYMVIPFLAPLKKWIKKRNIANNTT
T3 sequence (Q9P805 1-127 partner): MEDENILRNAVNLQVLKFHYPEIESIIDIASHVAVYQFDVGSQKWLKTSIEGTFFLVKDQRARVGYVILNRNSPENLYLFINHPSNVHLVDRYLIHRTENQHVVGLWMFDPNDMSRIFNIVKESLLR

[4] = molecular target: T4, S. pombe Dcp2 (spDcp2) 1–243 (S. pombe, UniProt O13828 1-243); assay: SEC
T4 sequence: T3 sequence (O13828 1-243)

[5] = molecular target: S. pombe Dcp2 1–243 W43A (S. pombe, UniProt O13828 1-243, W43A); assay: SEC
[6] = molecular target: S. pombe Dcp2 1–243 R167Q (S. pombe, UniProt O13828 1-243, R167Q); assay: SEC

How did the Kd [1] turn out when Nc1nc2c(ncn2[C@@H]2O[C@H](COP(=O)(O)OP(=O)(O)O)[C@@H](O)[C@H]2O)c(=O)[nH]1 [GDP] was run?
Its Kd is ~40 mM.

For C[n+]1cn([C@@H]2O[C@H](COP(=O)(O)OP(=O)(O)O)[C@@H](O)[C@H]2O)c2nc(N)[nH]c(=O)c21 [m^7GDP], which Kd [2] is on record?
Its Kd is 12 mM.

What about the Kd [1] of the same molecule?
The Kd was ~12 mM.

Which “SAXS, ligand-induced compaction” value [3] does the source give for C[n+]1cn([C@@H]2O[C@H](COP(=O)(O)OP(=O)(O)OP(=O)(O)OC[C@H]3O[C@@H](n4cnc5c(N)ncnc54)[C@H](O)[C@@H]3O)[C@@H](O)[C@H]2O)c2nc(N)[nH]c(=O)c21 [m^7GpppA] here?
Its value is “reveals a compaction in the presence of cap-analog m^7GpppA that is small but reproducible”.

B1: S. pombe Dcp1 1–127 (natural protein)
chain: T3 sequence (Q9P805 1-127 partner)
Does B1 bind [4]?
Result: binds

Does B1 bind [5]?
Result: binds

Does B1 bind [6]?
Result: binds
